Source: US8389551B2, “Optical enantiomers of phenyramidol and process for chiral synthesis” (Fermenta Biotech (UK) Limited, priority 2006, dated 2013)
Marks after values point to notes of the source that are not given here.

Key:
Type in all cases: in vivo
Wistar rats = test: Anti-inflammatory activity, carrageenin induced paw edema (plethysmometer); conditions: for % Increase in Paw volume 1 HR: 1 HR after carrageenan, oral, racemate 2400 mg, isomers 1200 mg human daily dose extrapolated to rats, Indomethacin 15 mg/kg, diclofenac 10 mg/kg; for % Increase in Paw volume 2 HR: 2 HR after carrageenan; for % Increase in Paw volume 2 HR / % Increase in Paw volume 3 HR / % Increase in Paw volume 5 HR: doses as E46; for % Increase in Paw volume 3 HR: 3 HR after carrageenan; for % Increase in Paw volume 5 HR: 5 HR after carrageenan
Description: Further, the investigations were carried out to determine the anti-inflammatory activities of the molecule of the present invention. Wistar rats weighing between 160-210 gm were divided into 6 groups of 10 animals each. Group I served as control (Placebo) and receive CMC and Group II & III received anti-inflammatory control (positive control) (Diclofenac & Indomethacin respectively). Group IV to VI were treated orally with test formulations. After 15 min. of drug administration, inflammation was induced by injecting 0.1 ml of freshly prepared 1% carrageenin (in normal saline) into the left hind paw of the rat. The paw volume of the […] was measured by measuring the displace fluid in other hand of plethysmometer.
Indomethacin (15 mg/kg and declofenac (10 mg/kg) was used as reference product. Percent increased in rat paw edema was measured and compare to normal control at each time intervals.
The antiinflammatory activity was assessed plethysmographically using following time points after the administration of carrageenan, 1 hr, 2 hrs, 3 hrs and 5 hrs.

mice = test: Central analgesic activity, tail flick analgesiometer
swiss albino mice [1] = test: Analgesic activity, acetic acid induced writhing method
Description: The objective of the study was to evaluate the analgesic activity of the tested formulations of the compounds of the present invention. The test was conducted in Swiss albino mice using acetic acid induced writhing method. A total of 78 pre-screened mice (showing writhing response within 10 minutes*) were divided into 6 groups of 13 animals (6 males+7 females) each. The animals showing no writhing response within 10 mins were excluded. Diclofenac and pentazocine were used as positive controls. The formulations were given orally to the different groups of animals and the number of writhes counted for a period of 15 minutes, after the onset of writhes. If the onset of writhes occurred 30 after 10 minutes the number of writhes was recorded as V. The time of onset of writhes was recorded for each animal.
The control group received 1% gum acacia. The Groups 2, 3, and 4 received the formulations viz: Phen 2; Phen 3 and Phen 4 respectively. Diclofenac and pentazocine were used as positive control and given to groups 5 and 6 respectively. Diclofenac, a potent analgesic & anti-inflammatory agent; and 5 pentazocine an opoid analgesic were selected for comparative evaluation of test formulations. Both these drugs were administered to different groups of animals at the dose of 2 mg/kg. The group 1 (Phen 1) served as—Ve Control group in the study. Phen 5 (Diclofenac—2 mg/kg) and Positive Control: Phen 6 (Pentazocine 2 mg/kg) served as positive controls.
Human daily dose of 2400 mg (800 mg×3 times) was extrapolated to mice for Phen3 and human daily dose of 1200 mg (400 mg×3 times) was extrapolated to mice for Phen2 and Phen 4. The numbers of writhes observed are given below in Table 4 for each formulation.
Further, the evaluation of analgesic activity was carried out using variable dosage forms with different groups. A total of 100 animals (50 males+50 females) were selected randomly and distributed into ten main groups with 10 animals per group (5 M+5 F). Human daily dose of 2400 mg (800 mg×3 times) was extrapolated to mice for Phen 3 (Phenyramidol Racemic (Hydrochloride) and human daily dose of 1200 mg (400 mg×3 times), 1800 mg (400 mg×4.5 times), 2000 mg (400 mg×5 times) & 2400 mg (400 mg×6 times) was extrapolated to mice for Phen2 and Phen4 groups.
The control group 1 received 1% gum acacia and served as negative control group. Groups 2, 3, 4 & 5 received the formulation Phen2. Groups 6, 7, 8 & 9 received the formulation Phen 4 (Isomer 2) & Group 10 received the formulation Phen 3 (Racemic).
Further, one more experiment was done with phenyramidol hydrochloride to evaluate the analgesic activity at lesser dosage levels using acetic acid induced method. A total of 50 animals (25 males+25 females) were selected and randomly distributed into five main groups with 10 animals per group (5 M+5 F). 5 Human daily dose of 600 mg (400×1.5 times) & 1200 mg (800 mg×1.5 times) was extrapolated to mice for Phen 3 (Racemic) and human daily dose of 600 mg (400 mg×1.5 times) was extrapolated to mice for (−) Phenyramidol Hydrochloride & (+) Phenyramidol Hydrochloride and the results are discussed in Table 6.

rats = test: Anti-arthritic activity, thickness of joint of right paw after injection of formalin; conditions: for Thickness of Joint (in cm) 0 hr: 0 hr (initial); for Thickness of Joint (in cm) 0 hr / Thickness of Joint (in cm) 2 hr: Phen 3 2400 mg, Phen 2 and Phen 4 1200 mg human daily dose extrapolated to rats, Diclofenac sodium 2 mg/Kg; for Thickness of Joint (in cm) 2 hr: 2 hr after formalin; for Thickness of Joint (in cm) 4 hr: 4 hr after formalin; for Thickness of Joint (in cm) 4 hr / Thickness of Joint (in cm) 8 hr / Thickness of Joint (in cm) 24 hr / Thickness of Joint (in cm) 48 hr / Thickness of Joint (in cm) 72 hr: doses as E38; for Thickness of Joint (in cm) 8 hr: 8 hr after formalin; for Thickness of Joint (in cm) 24 hr: 24 hr after formalin; for Thickness of Joint (in cm) 48 hr: 48 hr after formalin; for Thickness of Joint (in cm) 72 hr: 72 hr after formalin; for difference from normal control in thickness of the joint: at 2 hr, One Way ANOVA followed by Dunnett's Test; for Anti-arthritic activity (conclusion): formalin model, FIG. 18
Description: The anti-arthritic activity was assessed using following time points after the injection of formalin 2 hrs, 4 hrs, 8 hrs, 24 hrs, 48 hrs and 72 hrs. The control group (group 1) received 1% gum acacia. The Groups 2, 3, and 4 received the formulations viz: Phen 2, Phen 3 and Phen 4 respectively. Diclofenac was used as positive control and given to group 5. Human daily dose of 2400 mg (800 mg×3 times) was extrapolated to rats for 5 (racemate) Phen 3 and human daily dose of 1200 mg (400 mg×3 times) was extrapolated to rats for (isomer 1) Phen 2 and (isomer 2) Phen 4. Diclofenac sodium 2 mg/Kg was used as reference product.
Initial or 0 hr thickness of the joint of right paw of each animal was recorded. The thickness of the joint was measured using Vernier calipers at different time intervals after the injection of formalin. These efficacy variables were assessed at six time points 2 hrs, 4 hrs, 8 hrs, 24 hrs, 48 hrs and 72 hrs for each and every animal.

swiss albino mice [2] = test: Skeletal muscle relaxant activity, Rota rod apparatus, first experiment (oxalate salts, dose groups); conditions: at the doses mentioned
Description: The evaluation of skeletal muscle relaxant activity of the formulations containing phenyramidol racemic, dextro and laevo isomers of oxalate salts in swiss albino mice were carried out using Rota rod apparatus. Each animal was trained only once per day for 5 days. […] Mouse was placed on rota rod only when it achieved the speed of 25 rpm. The ‘fall off time’ in seconds was noted down when the mouse falls from rotating rod. Endurance time was measured up to 120 seconds. The skeletal muscle relaxant activity was assessed using 0 hr, 1 hr, 2 hrs, 4 hrs and 6 hrs time points after the dose administration. A total of 100 mice were selected and randomly distributed into ten main groups with 10 animals per group.
Control group receiving only vehicle served as a placebo in the study.
The test formulations were administered by oral route through gavage tube.(p.o.).
Two efficacy variables were assessed during the experiment: 1. Percent animal falling from the rod was noted; 2. Endurance Time (ET): The time taken for a mouse to fall from the rod was taken as endurance time. […] These efficacy variables were assessed at five time points 0 hr, 1 hr, 2 hr, 4 hr, and 6 hr for each and every animal.

[3] = 1 hr. after dose, human daily dose 2400 mg or 1200 mg extrapolated to mice, cut-off 10-12 seconds
[4] = 4 hr. after dose, human daily dose 2400 mg or 1200 mg extrapolated to mice, cut-off 10-12 seconds
[5] = Table 4, oral, writhes counted 15 minutes, Phen3 human daily dose 2400 mg, Phen2 and Phen 4 1200 mg extrapolated to mice, Diclofenac and Pentazocine 2 mg/kg
[6] = Table 5, dose 2400 mg (human daily dose extrapolated to mice), mean ± SD, n = 10
[7] = Table 6, dose 600 mg (human daily dose extrapolated to mice), mean ± SD, n = 10
[8] = experiment of Table 5 (variable doses)
[9] = experiment of Table 6, lesser dosage levels
[10] = Table 5, dose 1200 mg (human daily dose extrapolated to mice), mean ± SD, n = 10
[11] = Table 5, dose 1800 mg (human daily dose extrapolated to mice), mean ± SD, n = 10
[12] = Table 5, dose 2000 mg (human daily dose extrapolated to mice), mean ± SD, n = 10

Row | Compound | % Increase in Paw volume 1 HR (Wistar rats) | % Increase in Paw volume 2 HR (Wistar rats) | % Increase in Paw volume 3 HR (Wistar rats) | % Increase in Paw volume 5 HR (Wistar rats) | Average no. of writhes (swiss albino mice [1]; [5]) | Average no. of writhes (swiss albino mice [1]; [6]) | analgesic activity by decrease in the number of writhes induced by acetic acid (swiss albino mice [1]; experiment of Table 4) | analgesic activity by decrease in the number of writhes induced by acetic acid (swiss albino mice [1]; [8]) | Thickness of Joint (in cm) 0 hr (rats) | Thickness of Joint (in cm) 2 hr (rats) | Thickness of Joint (in cm) 4 hr (rats) | Thickness of Joint (in cm) 8 hr (rats) | Thickness of Joint (in cm) 24 hr (rats) | Thickness of Joint (in cm) 48 hr (rats) | Thickness of Joint (in cm) 72 hr (rats) | Tail Flick Reaction Time (Sec.) 1 hr. (mice; mouse, in vivo) | Tail Flick Reaction Time (Sec.) 4 hr. (mice; mouse, in vivo) | also measured
1 | OC(CNc1ccccn1)c1ccccc1 (racemic) [Phen 3, 2-(β-hydroxyphenethylamino) pyridine, reference compound] | 24.15 ± 7.27% | 44.73 ± 6.56% | 61.40 ± 18.21% | 47.13 ± 19.14% | 3.54 ± 3.95* | 4.20 ± 3.77* | significant analgesic activity | significant analgesic activity | 0.48 ± 0.04 cm | 0.59 ± 0.03 cm | 0.59 ± 0.04 cm | 0.62 ± 0.06 cm | 0.52 ± 0.05 cm | 0.54 ± 0.05 cm | 0.55 ± 0.05 cm | – | – | Tail Flick Reaction Time (Sec.) 1 hr. (mice; [3]): 4.86 ± 3.023 s; Tail Flick Reaction Time (Sec.) 4 hr. (mice; [4]): 5.055 ± 2.735 s; analgesic activity (tail flick latency compared to control) (mice; at 4 hr after dose administration): significant analgesic activity; Average no. of writhes (swiss albino mice [1]; [7]): 5.90 ± 6.14*; Average no. of writhes (swiss albino mice [1]; Table 6, dose 1200 mg (human daily dose extrapolated to mice), mean ± SD, n = 10): 1.50 ± 2.59*; analgesic activity by decrease in the number of writhes induced by acetic acid (swiss albino mice [1]; [9]): significant analgesic activity
2 | Cl.O[C@@H](CNc1ccccn1)c1ccccc1 [(−) Phenyramidol Hydrochloride, (R)-Phenyramidol Hydrochloride Salt] | – | – | – | – | – | – | – | – | – | – | – | – | – | – | – | – | – | Average no. of writhes (swiss albino mice [1]; [7]): 3.20 ± 4.16*; analgesic activity (summary statement) (swiss albino mice [1]; confirmed by an acetic acid induced writhing method): enhanced analgesic activity; analgesic activity by decrease in the number of writhes induced by acetic acid (swiss albino mice [1]; [9]): significant analgesic activity
3 | O=C(O)Cc1ccccc1Nc1c(Cl)cccc1Cl [Diclofenac, reference compound] | 15.77 ± 13.94% | 33.39 ± 7.35 % | 43.03 ± 15.41 % | 30.44 ± 9.52% | 4.08 ± 6.32* | – | – | – | 0.49 ± 0.04 cm | 0.56 ± 0.04 cm | 0.56 ± 0.04 cm | 0.62 ± 0.03 cm | 0.54 ± 0.05 cm | 0.53 ± 0.05 cm | 0.51 ± 0.03 cm | – | – | Tail Flick Reaction Time (Sec.) 1 hr. (mice; [3]): 3.41 ± 1.421 s; Tail Flick Reaction Time (Sec.) 4 hr. (mice; [4]): 2.48 ± 0.654 s; difference from normal control in thickness of the joint (rats): significant decrease in the thickness of the joint
4 | COc1ccc2c(c1)c(CC(=O)O)c(C)n2C(=O)c1ccc(Cl)cc1 [Indomethacin] | 18.58 ± 11.38% | 31.27 ± 4.75 % | 41.42 ± 12.54 % | 28.86 ± 8.22 % | – | – | – | – | – | – | – | – | – | – | – | – | – | –
5 | CC(C)=CCN1CCC2(C)c3cc(O)ccc3CC1C2C (stereo not drawn) [Pentazocine] | – | – | – | – | 10.62 ± 9.47* | – | – | – | – | – | – | – | – | – | – | 3.0 ± 0.7055 s | 3.0 ± 0.7055 s | –
6 | O=C(O)C(=O)O.O[C@H](CNc1ccccn1)c1ccccc1 [Phen 2, (S)-Phenyramidol Oxalate] | 25.82 ± 11.67% | 40.57 ± 10.07% | 66.59 ± 20.88% | 48.71 ± 15.16% | 13.08 ± 9.93* | 6.00 ± 5.66* | significant analgesic activity | significant analgesic activity | 0.45 ± 0.06 cm | 0.59 ± 0.03 cm | 0.56 ± 0.04 cm | 0.60 ± 0.06 cm | 0.54 ± 0.05 cm | 0.52 ± 0.04 cm | 0.50 ± 0.03 cm | 4.31 ± 1.754 s | 2.46 ± 0.591 s | Average no. of writhes (swiss albino mice [1]; [10]): 11.90 ± 8.43*; Average no. of writhes (swiss albino mice [1]; [11]): 8.80 ± 6.78*; Average no. of writhes (swiss albino mice [1]; [12]): 8.20 ± 7.30*; skeletal muscle relaxant activity (conclusion) (swiss albino mice [2]): exhibit skeletal muscle relaxant activity
7 | O=C(O)C(=O)O.O[C@@H](CNc1ccccn1)c1ccccc1 [Phen 4, (R)-Phenyramidol Oxalate] | 25.37 ± 10.44% | 39.90 ± 6.12% | 68.36 ± 22.20% | 49.65 ± 19.03% | 12.08 ± 4.21* | 4.50 ± 5.19* | significant analgesic activity | significant analgesic activity | 0.49 ± 0.04 cm | 0.56 ± 0.05 cm | 0.56 ± 0.05 cm | 0.62 ± 0.03 cm | 0.55 ± 0.05 cm | 0.53 ± 0.04 cm | 0.51 ± 0.03 cm | 2.87 ± 1.071 s | 3.18 ± 1.540 s | Average no. of writhes (swiss albino mice [1]; [10]): 10.50 ± 6.65*; Average no. of writhes (swiss albino mice [1]; [11]): 6.20 ± 5.39*; Average no. of writhes (swiss albino mice [1]; [12]): 6.00 ± 6.41*; difference from normal control in thickness of the joint (rats): significant difference (p<0.05); Anti-arthritic activity (conclusion) (rats): exhibits Anti-arthritic activity; Anti-arthritic activity (conclusion) (rats; listed as Phen4): significant anti-arthritic activity
